Drawing on US9187472B2 (AbbVie Inc., priority 2012, dated 2015), this text covers IC50 for 24 compounds.

Structures are written as SMILES.

This experiment concerns PC3 cells. In words: NAMPT Cell Proliferation Assay. As to conditions: Homo sapiens, PC-3, 120 h, 5 days incubation, cell viability by Cell Titer Glo. Format: cell-based. In a few lines:
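IC50 values derive from sigmoidal dose-response fits of percent inhibition of PC3 viability, measured by luminescence after 5 days of compound treatment. Cells (500/well, RPMI containing 10% heat-inactivated FBS) are allowed to attach overnight, and compounds are tested at 10-fold dilutions between 10 μM and 1×10^−5 μM.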
In general terms: Cellular ATP, detected with luciferase, serves as a proxy for viable cell number.
`CC(C)C(=O)N1CCC(c2ccc(NC(=O)Cc3ccc4nccn4c3)cc2)CC1` [Example 865, 2-(imidazo[1,2-a]pyridin-6-yl)-N-{4-[1-(2-methylpropanoyl)piperidin-4-yl]phenyl}acetamide]: the IC50 (as a rule, the concentration that inhibits the measured activity by half) turned out to be 0.861 nM.

`O=C(NCc1ccn2ccnc2c1)c1ccc(C2CCN(C(=O)c3ncccc3Cl)CC2)cc1` [Example 965, 4-{1-[(3-chloropyridin-2-yl)carbonyl]piperidin-4-yl}-N-(imidazo[1,2-a]pyridin-7-ylmethyl)benzamide] gave an IC50 of 8.31 nM. For the compound `CCCc1c(C(=O)N2CCC(c3ccc(NC(=O)NCc4ccn5ccnc5c4)cc3)CC2)cnn1C` [Example 1141, 1-(imidazo[1,2-a]pyridin-7-ylmethyl)-3-(4-{1-[(1-methyl-5-propyl-1H-pyrazol-4-yl)carbonyl]piperidin-4-yl}phenyl)urea], half-maximal inhibition (IC50) was put at 2.2 nM. Regarding `O=C(NCc1ccn2ccnc2c1)c1ccc(C2CCN(C(=O)c3nc4ccccc4s3)CC2)cc1` [Example 1001, 4-[1-(1,3-benzothiazol-2-ylcarbonyl)piperidin-4-yl]-N-(imidazo[1,2-a]pyridin-7-ylmethyl)benzamide], the IC50 was determined as 95.3 nM. In turn, `O=C(NCc1ccn2ccnc2c1)Nc1ccc(C2CCN(C(=O)c3ccc4cccnc4c3)CC2)cc1` [Example 1032, 1-(imidazo[1,2-a]pyridin-7-ylmethyl)-3-{4-[1-(quinolin-7-ylcarbonyl)piperidin-4-yl]phenyl}urea] displayed a concentration for half-maximal inhibition (IC50) of 8.88 nM. The compound `O=C(NCc1ccn2ccnc2c1)c1ccc(C2CCN(C(=O)c3ccnn3C3CCCC3)CC2)cc1` [Example 1101, 4-{1-[(1-cyclopentyl-1H-pyrazol-5-yl)carbonyl]piperidin-4-yl}-N-(imidazo[1,2-a]pyridin-7-ylmethyl)benzamide] showed a half-maximal inhibitory concentration (IC50) of 2.06 nM. As for `CC(C)c1nc(C(=O)N2CCC(c3ccc(NC(=O)NCc4ccn5ccnc5c4)cc3)CC2)co1` [Example 1145, 1-(imidazo[1,2-a]pyridin-7-ylmethyl)-3-[4-(1-{[2-(propan-2-yl)-1,3-oxazol-4-yl]carbonyl}piperidin-4-yl)phenyl]urea], the figure is 7.04 nM; as for `O=C(NCc1ccn2ccnc2c1)c1ccc(-c2cnn(CCN3CCNCC3)c2)o1` [Example 889, N-(imidazo[1,2-a]pyridin-7-ylmethyl)-5-{1-[2-(piperazin-1-yl)ethyl]-1H-pyrazol-4-yl}furan-2-carboxamide], 651 nM.

On to `O=C(NCc1ccn2ccnc2c1)Nc1ccc(C2CCN(C(=O)c3cccc4ncsc34)CC2)cc1` [Example 1060, 1-{4-[1-(1,3-benzothiazol-7-ylcarbonyl)piperidin-4-yl]phenyl}-3-(imidazo[1,2-a]pyridin-7-ylmethyl)urea], for which it took 2.29 nM to reach half-maximal inhibition (IC50). As for `O=C(NCc1ccn2ccnc2c1)Nc1ccc(C2CCN(C(=O)c3scnc3Cl)CC2)cc1` [Example 1138, 1-(4-{1-[(4-chloro-1,3-thiazol-5-yl)carbonyl]piperidin-4-yl}phenyl)-3-(imidazo[1,2-a]pyridin-7-ylmethyl)urea], the figure is 3.85 nM; as for `Cn1nc2c(c1C(=O)N1CCC(c3ccc(C(=O)NCc4ccn5ccnc5c4)cc3)CC1)CCCC2` [Example 961, N-(imidazo[1,2-a]pyridin-7-ylmethyl)-4-{1-[(2-methyl-4,5,6,7-tetrahydro-2H-indazol-3-yl)carbonyl]piperidin-4-yl}benzamide], 8.94 nM. In the case of `O=C(NCc1ccc2nccn2c1)c1ccc(S(=O)(=O)c2ccccc2)cc1` [Example 898, N-(imidazo[1,2-a]pyridin-6-ylmethyl)-4-(phenylsulfonyl)benzamide], the 50% inhibitory concentration (IC50) was 223 nM. As for `Cn1nc(C2CC2)cc1C(=O)N1CCC(c2ccc(NC(=O)NCc3ccn4ccnc4c3)cc2)CC1` [Example 1013, 1-(4-{1-[(3-cyclopropyl-1-methyl-1H-pyrazol-5-yl)carbonyl]piperidin-4-yl}phenyl)-3-(imidazo[1,2-a]pyridin-7-ylmethyl)urea], the figure is 2.32 nM; as for `C=CCn1nc(C)cc1C(=O)N1CCC(c2ccc(NC(=O)NCc3ccn4ccnc4c3)cc2)CC1` [Example 1056, 1-(imidazo[1,2-a]pyridin-7-ylmethyl)-3-[4-(1-{[3-methyl-1-(prop-2-en-1-yl)-1H-pyrazol-5-yl]carbonyl}piperidin-4-yl)phenyl]urea], 1.3 nM.

Consider `CC(C)n1ccc(C(=O)N2CCC(c3ccc(NC(=O)NCc4ccn5ccnc5c4)cc3)CC2)n1` [Example 1011, 1-(imidazo[1,2-a]pyridin-7-ylmethyl)-3-[4-(1-{[1-(propan-2-yl)-1H-pyrazol-3-yl]carbonyl}piperidin-4-yl)phenyl]urea], for which the IC50 is 1.97 nM.

The compound `O=C(NCc1ccn2ccnc2c1)Nc1ccc(C2CCN(C(=O)c3cccc4c3OCCO4)CC2)cc1` [Example 1026, 1-{4-[1-(2,3-dihydro-1,4-benzodioxin-5-ylcarbonyl)piperidin-4-yl]phenyl}-3-(imidazo[1,2-a]pyridin-7-ylmethyl)urea] gave a half-inhibitory concentration (IC50) of 1.56 nM.

Compound `COC1CCC(C(=O)N2CCC(c3ccc(C(=O)NCc4ccn5ccnc5c4)cc3)CC2)CC1` (stereo not drawn) [Example 977, N-(imidazo[1,2-a]pyridin-7-ylmethyl)-4-{1-[(4-methoxycyclohexyl)carbonyl]piperidin-4-yl}benzamide] gave an IC50 of 2.65 nM. As for `N#Cc1ccsc1C(=O)N1CCC(c2ccc(NC(=O)NCc3ccn4ccnc4c3)cc2)CC1` [Example 1139, 1-(4-{1-[(3-cyanothiophen-2-yl)carbonyl]piperidin-4-yl}phenyl)-3-(imidazo[1,2-a]pyridin-7-ylmethyl)urea], the figure is 1.41 nM; as for `CC(C)(CN1CCNCC1)Cn1cc(-c2ccc(C(=O)NCc3ccn4ccnc4c3)s2)cn1` [Example 1082, 5-{1-[2,2-dimethyl-3-(piperazin-1-yl)propyl]-1H-pyrazol-4-yl}-N-(imidazo[1,2-a]pyridin-7-ylmethyl)thiophene-2-carboxamide], 2.18 nM; as for `CC(C)Cn1cc(-c2ccc(C(=O)NCc3cn4ccnc4cc3F)s2)cn1` [Example 1080, N-[(7-fluoroimidazo[1,2-a]pyridin-6-yl)methyl]-5-[1-(2-methylpropyl)-1H-pyrazol-4-yl]thiophene-2-carboxamide], 3.41 nM.

The compound `Cc1cc(C(=O)N2CCC(c3ccc(NC(=O)NCc4ccn5ccnc5c4)cc3)CC2)cc(Cl)n1` [Example 951, 1-(4-{1-[(2-chloro-6-methylpyridin-4-yl)carbonyl]piperidin-4-yl}phenyl)-3-(imidazo[1,2-a]pyridin-7-ylmethyl)urea] returned a 50% inhibitory concentration (IC50) of 63.9 nM. In the case of `Cc1cc(C(=O)N2CCC(c3ccc(C(=O)NCc4ccn5ccnc5c4)cc3)CC2)cnc1C` [Example 1007, 4-{1-[(5,6-dimethylpyridin-3-yl)carbonyl]piperidin-4-yl}-N-(imidazo[1,2-a]pyridin-7-ylmethyl)benzamide], the IC50 came to 37.3 nM. `N#Cc1ccc(C(=O)N2CCC(c3ccc(NC(=O)NCc4ccn5ccnc5c4)cc3)CC2)s1` [Example 1131, 1-(4-{1-[(5-cyanothiophen-2-yl)carbonyl]piperidin-4-yl}phenyl)-3-(imidazo[1,2-a]pyridin-7-ylmethyl)urea] came in with a 50% inhibitory concentration (IC50) of 34.4 nM. Then `COc1ccc(C(=O)N2CCC(c3ccc(C(=O)NCc4ccn5ccnc5c4)cc3)CC2)nc1OC` [Example 1115, 4-{1-[(5,6-dimethoxypyridin-2-yl)carbonyl]piperidin-4-yl}-N-(imidazo[1,2-a]pyridin-7-ylmethyl)benzamide], with 21.2 nM.
